Source: PMC8892231 (EMBO Reports, 2021)

Assays:
[1] = test system: qC10ORF99 promoter; assay: Luciferase reporter assay, Japanese quail C10ORF99 promoter in HEK293 cells; assay type: cell-based; conditions: promoter-pGL4.14 (300 ng), sodium propionate or sodium acetate in serum-free medium for 12 h, normalized to β-galactosidase, vs parental PGL4.14 plasmid, n = 3
[2] = test system: cGPR15‐A283L; assay: Intracellular calcium assay, reverse mutant cGPR15‐A283L; assay type: cell-based, Latimeria chalumnae; conditions: CHO cells, Fluo-4 calcium assay; peptide 10 nM
[3] = test system: cGPR15‐P246K; assay: Intracellular calcium assay, reverse mutant cGPR15‐P246K; assay type: cell-based, Lepisosteus oculatus/Scleropages formosus; conditions: CHO cells, Fluo-4 calcium assay; peptide 10 nM

| Compound | luciferase activity of the promoter construct [1] | activation of the mutant receptor based on Ca2+ measurements [2] | activation of the mutant receptor based on Ca2+ measurements [3] |
| --- | --- | --- | --- |
| CC(=O)O [acetate] | significantly increased |  |  |
| CCC(=O)O [propionate] | significantly increased |  |  |
| AAPSPLFVPGPLPQL [qC10ORF99] |  | activated | activated |
